Reference: US9745310B2 (SK BIOPHARMACEUTICALS CO., LTD., priority 2015, dated 2017)

Target: human mGluR5 receptor (Homo sapiens (Human), UniProt P41594)
Assay: Calcium influx assay based on fluorescence (mGluR5 PAM activity)
Details: human mGluR5 receptor-overexpressed HEK293 cell line; L-glutamate EC20; Fluo-4, FLIPR
In short: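 HEK293 cells overexpressing human mGluR5, loaded 1 h with Fluo-4 at 37° C. Compounds (10 μM to 10 nM final, 0.1–0.2% DMSO) added with an EC20 concentration of L-glutamate, and Ca2+ response read by FLIPR at room temperature. Activity scaled as 0% for EC20 glutamate alone and 100% for glutamate maximum.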

Sequence of human mGluR5 receptor (P41594 21-1212): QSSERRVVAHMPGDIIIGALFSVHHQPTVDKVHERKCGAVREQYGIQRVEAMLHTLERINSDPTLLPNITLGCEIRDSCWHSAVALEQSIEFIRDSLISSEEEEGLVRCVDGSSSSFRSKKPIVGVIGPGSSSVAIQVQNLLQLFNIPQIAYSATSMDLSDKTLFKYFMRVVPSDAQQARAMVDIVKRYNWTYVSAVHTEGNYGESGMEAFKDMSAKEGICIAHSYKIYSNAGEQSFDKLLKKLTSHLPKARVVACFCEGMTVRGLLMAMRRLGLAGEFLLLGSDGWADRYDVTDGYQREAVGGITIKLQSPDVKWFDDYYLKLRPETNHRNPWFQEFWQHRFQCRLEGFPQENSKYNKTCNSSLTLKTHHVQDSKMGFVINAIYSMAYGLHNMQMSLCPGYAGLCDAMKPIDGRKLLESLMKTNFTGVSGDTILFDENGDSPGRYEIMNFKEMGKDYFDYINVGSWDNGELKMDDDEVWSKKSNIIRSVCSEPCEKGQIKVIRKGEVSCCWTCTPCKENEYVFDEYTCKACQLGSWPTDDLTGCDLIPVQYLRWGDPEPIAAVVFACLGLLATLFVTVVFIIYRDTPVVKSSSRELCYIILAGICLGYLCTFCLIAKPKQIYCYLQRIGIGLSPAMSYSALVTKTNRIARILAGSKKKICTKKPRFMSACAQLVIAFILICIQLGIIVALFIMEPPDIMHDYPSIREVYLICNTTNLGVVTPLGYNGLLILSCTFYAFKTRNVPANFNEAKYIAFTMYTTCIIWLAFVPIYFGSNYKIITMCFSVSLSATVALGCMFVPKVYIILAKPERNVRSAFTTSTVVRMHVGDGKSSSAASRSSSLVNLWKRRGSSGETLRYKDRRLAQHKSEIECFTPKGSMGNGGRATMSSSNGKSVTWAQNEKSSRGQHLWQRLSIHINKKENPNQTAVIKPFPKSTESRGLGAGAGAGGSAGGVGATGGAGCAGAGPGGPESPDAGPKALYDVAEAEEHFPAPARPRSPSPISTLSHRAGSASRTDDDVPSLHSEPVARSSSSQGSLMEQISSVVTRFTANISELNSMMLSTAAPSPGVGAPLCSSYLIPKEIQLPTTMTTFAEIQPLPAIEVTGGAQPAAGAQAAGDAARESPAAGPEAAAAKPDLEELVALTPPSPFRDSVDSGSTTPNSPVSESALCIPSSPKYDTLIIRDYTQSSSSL

SMILES | EC50 [µM]
Cc1ccc(-c2cnc3nc(COc4ccc(F)cc4)cn3c2)cc1N [Example 72, 5-[2-[(4-fluorophenoxy)methyl]imidazo[1,2-a]pyrimidin-6-yl]-2-methyl-aniline] | 0.1 to 0.5
Cc1ccncc1-c1cnc2nc(COc3ccc(F)cc3)cn2c1 [Example 78, 2-[(4-fluorophenoxy)methyl]-6-(4-methyl-3-pyridyl)imidazo[1,2-a]pyrimidine] | 0.1 to 0.5
COc1cc(-c2cnc3nc(COc4ccc(F)cc4)cn3c2)ccn1 [Example 99, 2-[(4-fluorophenoxy)methyl]-6-(2-methoxy-4-pyridyl)imidazo[1,2-a]pyrimidine] | 0.5 to 1
Oc1ccccc1-c1cnc2nc(COc3ccc(F)cc3)cn2c1 [Example 63, 2-[2-[(4-fluorophenoxy)methyl]imidazo[1,2-a]pyrimidin-6-yl]phenol] | 0.1 to 0.5
COc1cc(Cl)ccc1-c1cnc2nc(COc3ccccn3)cn2c1 [Example 111, 6-(4-chloro-2-methoxyphenyl)-2-(pyridin-2-yloxymethyl)imidazo[1,2-a]pyrimidine] | 0.1 to 0.5
Cc1c(F)cccc1-c1cnc2nc(COc3ccccn3)cn2c1 [Example 109, 6-(3-fluoro-2-methylphenyl)-2-(pyridin-2-yloxymethyl)imidazo[1,2-a]pyrimidine] | 0.1 to 0.5
Fc1ccnc(OCc2cn3cc(-c4ccc(F)cc4C(F)(F)F)cnc3n2)c1 [Example 125, 2-[(4-fluoro-2-pyridyl)oxymethyl]-6-[4-fluoro-2-(trifluoromethyl)phenyl]imidazo[1,2-a]pyrimidine] | 0.1 to 0.5
Cc1cc(F)ccc1-c1cnc2nc(COc3ccc(F)cn3)cn2c1 [Example 114, 6-(4-fluoro-2-methyl-phenyl)-2-[(5-fluoro-2-pyridyl)oxymethyl)imidazo[1,2-a]pyrimidine] | 0.1 to 0.5
OCc1cc(F)ccc1-c1cnc2nc(COc3ccc(F)cc3)cn2c1 [Example 97, [5-fluoro-2-[2-[(4-fluorophenoxy)methyl]imidazo[1,2-a]pyrimidin-6-yl]phenyl]methanol] | 0.1 to 0.5
Fc1ccc(-c2cnc3nc(COc4ccccc4)cn3c2)nc1 [Example 40, 6-(5-fluoro-2-pyridyl)-2-phenoxymethylimidazo[1,2-a]pyrimidine] | 0.1 to 0.5
Oc1cc(F)ccc1-c1cnc2nc(COc3cccc(F)c3)cn2c1 [Example 57, 5-fluoro-2-[2-[(3-fluorophenoxy)methyl]imidazo[1,2-a]pyrimidin-6-yl]phenol] | 0.1 to 0.5
Fc1cccc(OCc2cn3cc(-c4ccncc4Cl)cnc3n2)c1 [Example 45, 6-(3-chloropyridin-4-yl)-2-(3-fluorophenoxymethyl)imidazo[1,2-a]pyrimidine] | 0.1 to 0.5
Nc1cc(-c2cnc3nc(COc4ccc(F)cn4)cn3c2)ccc1F [Example 133, 2-fluoro-5-[2-[(5-fluoro-2-pyridyl)oxymethyl]imidazo[1,2-a]pyrimidin-6-yl]aniline] | 0.5 to 1
Fc1ccnc(OCc2cn3cc(-c4ccc(F)cc4F)cnc3n2)c1 [Example 120, 6-(2,4-difluorophenyl)-2-[(4-fluoro-2-pyridyl)oxymethyl)imidazo[1,2-a]pyrimidine] | 0.1 to 0.5
Cc1ccc(-c2cnc3nc(COc4ccc(F)cc4)cn3c2)cn1 [Example 92, 2-[(4-fluorophenoxy)methyl]-6-(6-methyl-3-pyridyl)imidazo[1,2-a]pyrimidine] | 0.1 to 0.5
Nc1cc(-c2cnc3nc(COc4ccccc4)cn3c2)ccc1F [Example 12, 6-(3-amino-4-fluorophenyl)-2-phenoxymethylimidazo[1,2-a]pyrimidine] | 0.5 to 1
Fc1ccc(-c2cnc3nc(COc4ccccn4)cn3c2)c2c1OCO2 [Example 110, 6-(7-fluoro-2H-benzo[1,3]dioxol-4-yl)-2-(pyridin-2-yloxymethyl)imidazo[1,2-a]pyrimidine] | 0.1 to 0.5
Cc1ccc(-c2cnc3nc(COc4ccc(F)cc4)cn3c2)c(N)c1 [Example 74, 2-[2-[(4-fluorophenoxy)methyl]imidazo[1,2-a]pyrimidin-6-yl]-5-methyl-aniline] | 0.1 to 0.5
Nc1cccc(-c2cnc3nc(COc4ccccc4)cn3c2)c1 [Example 9, 6-(3-aminophenyl)-2-phenoxymethylimidazo[1,2-a]pyrimidine] | 0.5 to 1
FC(F)(F)c1ccc(-c2cnc3nc(COc4ccccn4)cn3c2)cn1 [Example 130, 2-(2-pyridyloxymethyl)-6-[6-(trifluoromethyl)-3-pyridyl]imidazo[1,2-a]pyrimidine] | 0.1 to 0.5
[2H]c1c([2H])c([2H])c(OCc2cn3cc(-c4ccc(F)cc4)cnc3n2)c([2H])c1[2H] [Example 59, 6-(4-fluorophenyl)-2-[(2,3,4,5,6-pentadeuteriophenoxy)methyl]imidazo[1,2-a]pyrimidine] | 0.1 to 0.5
Nc1cc(Cl)ccc1-c1cnc2nc(COc3ccc(F)cc3)cn2c1 [Example 75, 5-chloro-2-[2-[(4-fluorophenoxy)methyl]imidazo[1,2-a]pyrimidin-6-yl]aniline] | 0.1 to 0.5
Clc1ccc(-c2cnc3nc(COc4ccccc4)cn3c2)cn1 [Example 34, 6-(6-chloropyridin-3-yl)-2-phenoxymethylimidazo[1,2-a]pyrimidine] | 0.1 to 0.5
Fc1ccc(-c2cnc3nc(COc4ccccc4)cn3c2)cc1Cl [Example 13, 6-(3-chloro-4-fluorophenyl)-2-phenoxymethylimidazo[1,2-a]pyrimidine] | 0.5 to 1
COc1cncc(-c2cnc3nc(COc4ccc(F)cc4)cn3c2)c1 [Example 89, 2-[(4-fluorophenoxy)methyl]-6-(5-methoxy-3-pyridyl)imidazo[1,2-a]pyrimidine] | 0.5 to 1
CSc1cc(F)ccc1-c1cnc2nc(COc3ccccc3)cn2c1 [Example 26, 6-(4-fluoro-2-methylthiophenyl)-2-phenoxymethylimidazo[1,2-a]pyrimidine] | 0.1 to 0.5
Fc1ccc(-c2cnc3nc(COc4ccccc4)cn3c2)c2c1OCO2 [Example 24, 6-(7-fluorobenzo[1,3]dioxol-4-yl)-2-phenoxymethylimidazo[1,2-a]pyrimidine] | 0.1 to 0.5

Other lines, results leading:

EC50 [µM] | SMILES
0.5 to 1 | Fc1ccc(-c2cnc3nc(COc4cccnc4)cn3c2)c(F)c1 [Example 148, 6-(2,4-difluorophenyl)-2-(pyridin-3-yloxymethyl)imidazo[1,2-a]pyrimidine]
0.1 to 0.5 | Fc1ccc(-c2cnc3nc(COc4ccnc(F)c4)cn3c2)cc1 [Example 164, 6-(4-fluorophenyl)-2-(2-fluoropyridin-4-yloxymethyl)imidazo[1,2-a]pyrimidine]
0.5 to 1 | Oc1cc(F)ccc1-c1cnc2nc(COc3cccnc3)cn2c1 [Example 150, 6-(4-fluoro-2-hydroxyphenyl)-2-(pyridin-3-yloxymethyl)imidazo[1,2-a]pyrimidine]
0.1 to 0.5 | Fc1ccc(-c2cnc3nc(COc4ccccc4)cn3n2)c(F)c1 [Example 178, 2-(2,4-difluorophenyl)-6-(phenoxymethyl)imidazo[1,2-b][1,2,4]triazine]
0.5 to 1 | FC(F)(F)c1cc(Cl)ccc1-c1cnc2nc(COc3ccccn3)cn2n1 [Example 189, 2-[4-chloro-2-(trifluoromethyl)phenyl]-6-(2-pyridyloxymethyl)imidazo[1,2-b][1,2,4]triazine]
0.1 to 0.5 | FC(F)(F)c1cc(Cl)ccc1-c1cnc2nc(COc3ccccn3)cn2c1 [Example 145, 6-[4-chloro-2-(trifluoromethyl)phenyl]-2-(2-pyridyloxymethyl)imidazo[1,2-a]pyrimidine]
0.1 to 0.5 | Fc1cc(OCc2cn3cc(-c4cccc(F)c4F)cnc3n2)ccn1 [Example 165, 6-(2,3-difluorophenyl)-2-(2-fluoropyridin-4-yloxymethyl)imidazo[1,2-a]pyrimidine]
0.1 to 0.5 | NC(=O)OCc1cc(F)ccc1-c1cnc2nc(COc3ccc(F)cc3)cn2c1 [Example 193, [5-fluoro-2-[2-[(4-fluorophenoxy)methyl]imidazo[1,2-a]pyrimidin-6-yl]phenyl]methyl carbamate]
0.5 to 1 | OCc1cc(F)ccc1-c1cnc2nc(COc3cncc(F)c3)cn2c1 [Example 177, [5-fluoro-2-[2-[(5-fluoro-3-pyridyl)oxymethyl]imidazo[1,2-a]pyrimidin-6-yl]phenyl]methanol]
0.1 to 0.5 | Cc1cc(F)ccc1-c1cnc2nc(COc3ccc(F)nc3)cn2c1 [Example 158, 6-(4-fluoro-2-methylphenyl)-2-(6-fluoropyridin-3-yloxymethyl)imidazo[1,2-a]pyrimidine]
0.1 to 0.5 | Fc1ccc(-c2cnc3nc(COc4ccccn4)cn3n2)c(F)c1 [Example 180, 2-(2,4-difluorophenyl)-6-((pyridin-2-yloxy)methyl)imidazo[1,2-b][1,2,4]triazine]
0.5 to 1 | Cc1cc(F)ccc1-c1cnc2nc(COc3cncc(Cl)c3)cn2c1 [Example 160, 6-(4-fluoro-2-methylphenyl)-2-(5-chloropyridin-3-yloxymethyl)imidazo[1,2-a]pyrimidine]
0.1 to 0.5 | Fc1ccc(-c2cnc3nc(COc4ccnc(F)c4)cn3c2)c(F)c1 [Example 161, 6-(2,4-difluorophenyl)-2-(2-fluoropyridin-4-yloxymethyl)imidazo[1,2-a]pyrimidine]
0.1 to 0.5 | OCc1cc(F)ccc1-c1cnc2nc(COc3ccccn3)cn2c1 [Example 135, [5-fluoro-2-[2-(2-pyridyloxymethyl)imidazo[1,2-a]pyrimidin-6-yl]phenyl]methanol]
0.1 to 0.5 | N#Cc1ccc(-c2cnc3nc(COc4ccccn4)cn3c2)cc1 [Example 140, 4-[2-(2-pyridyloxymethyl)imidazo[1,2-a]pyrimidin-6-yl]benzonitrile]
0.1 to 0.5 | COc1cc(F)ccc1-c1cnc2nc(COc3ccncc3)cn2c1 [Example 151, 6-(4-fluoro-2-methoxyphenyl)-2-(pyridin-4-yloxymethyl)imidazo[1,2-a]pyrimidine]
0.1 to 0.5 | Fc1ccc(-c2cnc3nc(COc4ccncc4)cn3n2)c(F)c1 [Example 179, 2-(2,4-difluorophenyl)-6-((pyridin-4-yloxy)methyl)imidazo[1,2-b][1,2,4]triazine]
